{
  "source": "patent US20220008390A1",
  "about": "“COMPOSITIONS AND METHODS FOR TREATING PAIN AND/OR INFLAMMATION” (Neumentum, Inc., priority 2020, published 2022)",
  "key": {"rat formalin (1%) model": {"test_system": "rat formalin (1%) model", "test": "rat formalin (1%) test", "format": "in vivo", "details": "300 mg/kg, oral, 1 hr pretreatment; 1% formalin intraplantar; FIG. 1", "experimental": "5-Methyl-1H-pyrazole-3-carboxylic acid (4-hydroxy-phenyl)-amide (Compound 1) was tested in the rat formalin (1%) model. The rat formalin test is a preclinical model of human painful conditions.\nThe formalin test in rat (or mice) is a valid and reliable model of nociception (sensation of pain) and is sensitive for various classes of analgesic drugs. Formalin is a solution of formaldehyde in water. The subcutaneous injection of dilute formalin induces pain in humans and nociceptive (presumptive of pain) behaviors in animals. Since it is painful when it is injected in humans, it is used as an animal model that is considered translational to human pain. […]\nIn the formalin model, pain response scoring is determined by recording the pain-like behaviors per unit of time including licking, flinching, or raising or shaking of the injected paw. […]\nFor all Groups, animals were acclimated to the observation chamber for about 15 minutes immediately prior to formalin injection. All animals received an intraplantar subcutaneous injection of 50 μL of 1% formalin into the left hind paw and were then be placed in the observation chamber immediately and formalin-evoked spontaneous nociceptive behaviors in the rats was continuously recorded for 0-60 min using a commercial camcorder. […]"}, "[1]": {"test_system": "carrageenan-induced paw-edema", "test": "rat carrageenan-induced paw-edema model", "format": "in vivo", "experimental": "5-Methyl-1H-pyrazole-3-carboxylic acid (4-hydroxy-phenyl)-amide (Compound 1) was tested in the rat carrageenan paw-edema model. The rat carrageenan model is a preclinical model of inflammation and anti-inflammatory efficacy. Generally, animals are injected with carrageenan in one hind footpad, usually, half an hour or an hour after they are treated with the test compound while the other footpad is injected with saline as a control. The measurement of paw volume/thickness is then performed at specified time points. The objective of this study was to evaluate the effect of 5-Methyl-1H-pyrazole-3-carboxylic acid (4-hydroxy-phenyl)-amide (Compound 1) on paw edema in rat induced by intra-plantar injection of i-Carrageenan into the left hind paw. [table] On Day 1, carrageenan (1%; 100 uL) was injected subcutaneously into the plantar aspect of the left hindpaw of rats from all groups. Carrageenan injection was performed in conscious rats by restraining with hand and injection was done in the middle of the plantar surface area. The carrageenan solution was vortexed/stirred before each injection. • Route of Administration Oral gavage (PO) • Dosing Regimen: Single dose on Day 1, 1 h before Carrageenan injection. • Method: The day of dosing was designated as Day 1. The animals were not sedated. The volume for each dose was administered over one injection based on the body weight. Paw volume (left hind paw) was measured before carrageenan injection (baseline) and then at 1, 3, 6 and 8 hours (+/−2 minutes) after carrageenan injection (on Day 1). Measurements will be done using a digital plethysmometer as below: In brief, the Plethysmometer is a volume meter, designed for accurate measurements of inflammation-induced swelling. It consists of a water filled cell into which the paw along with the ankle joint is dipped. A transducer records the differences in water level caused by volume displacement and provides LCD readout of the exact volume gain due to swelling. Limb volumes were recorded onto a data sheet as they were measured. One trial per animal were recorded for each time point. […]"}, "[2]": {"test_system": "moderate to severe pain after third molar extractions", "test": "single-dose clinical study, pain after third molar extractions (pain intensity difference)", "format": "in vivo, human", "details": "1000 mg single dose, up to 24 hours post-dose; FIG. 3", "experimental": "A single-center, randomized, double-blind, placebo- and active-controlled, parallel group study was performed to evaluate the efficacy, safety and pharmacokinetic profile of a single dose of 5-Methyl-1H-pyrazole-3-carboxylic acid (4-hydroxy-phenyl)-amide (Compound 1), over a 24-hour on-site period in moderate to severe pain after third molar extractions in up to 280 male subjects was performed. Healthy male subjects, ages 18 to 45 years, were screened by medical history, vital signs, electrocardiogram (ECG), and clinical laboratory tests. Eligible subjects returned to the clinic on the day of surgery and completed baseline vital signs and clinical laboratory tests. The subjects were randomized such that one group received placebo (Group 1), one group received 1000 mg of Compound 1 (Group 2), and one group received 1000 mg acetaminophen (Group 3). All Groups received the treatment dose within up to 4.5 hours after oral surgery (third molar extraction). Pain intensity/pain relief assessments were collected at 0.25, 0.5, 0.75, 1, 1.5, 2, hourly up to 12, 16, and 24 hours post-dose and at time of first rescue medication (oral ibuprofen). […] This unexpected result makes the compounds of the present invention suitable for chronic pain and/or inflammatory indications as disclosed herein."}, "[3]": {"test": "pharmacokinetic profile in third molar extraction study", "format": "in vivo", "details": "human; plasma, 1000 mg single dose, male subjects", "experimental": "A single-center, randomized, double-blind, placebo- and active-controlled, parallel group study was performed to evaluate the efficacy, safety and pharmacokinetic profile of a single dose of 5-Methyl-1H-pyrazole-3-carboxylic acid (4-hydroxy-phenyl)-amide (Compound 1), over a 24-hour on-site period in moderate to severe pain after third molar extractions in up to 280 male subjects was performed.\nThe subjects were randomized such that one group received placebo (Group 1), one group received 1000 mg of Compound 1 (Group 2), and one group received 1000 mg acetaminophen (Group 3). All Groups received the treatment dose within up to 4.5 hours after oral surgery (third molar extraction).\nPain intensity/pain relief assessments were collected at 0.25, 0.5, 0.75, 1, 1.5, 2, hourly up to 12, 16, and 24 hours post-dose and at time of first rescue medication (oral ibuprofen). […] This unexpected result makes the compounds of the present invention suitable for chronic pain and/or inflammatory indications as disclosed herein."}, "[4]": {"test_system": "mechanical allodynia after severe spinal cord contusion injury", "test": "mechanical allodynia after severe spinal cord contusion injury (von Frey, Up-Down)", "format": "in vivo, rat", "details": "10 mg/kg/day by gavage for 7 days; day 28 post surgery", "experimental": "5-Methyl-1H-pyrazole-3-carboxylic acid (4-hydroxy-phenyl)-amide (Compound 1) treatment is tested in the suppression of the development of mechanical allodynia after severe spinal cord contusion injury in the rat. Thirteen week-old female Lewis rats (Charles River, Sulzfeld Germany) are housed under a 12:12 h dark/light regime and allowed free access to water and food. After one week of habituation the animals undergo general anesthesia with a mixture of isoflurane and air (induction: 5% isoflurane, maintenance: 2.2% isofluorane). […] The following groups were used: • Group I: SCI model+vehicle (1.5% Carboxymethylcellulose (CMC) in sterile water) by gavage for seven days • Group 2: SCI model+Compound 1 (10 mg/kg/day) in vehicle by gavage for 7 days The mechanical sensitivity response is measured as the direct pressure stimulus required for eliciting foot withdrawal in nonrestrained conditions. […] The 50% threshold force needed for paw withdrawal is calculated for both hind paws of each rat and the mean value of both hind paws is used to represent the mechanical sensitivity of this animal. The mechanical sensitivity (indicated by the 50% threshold force for paw withdrawals) is determined by the Up-Down method using von Frey filaments. […]"}, "neuropathic pain": {"test_system": "neuropathic pain", "test": "12 week study in subjects with neuropathic pain", "format": "in vivo, human", "details": "arms including 1000 and 2000 mg/day", "description": "Subjects are diagnosed with neuropathic pain (chronic and ongoing for more than 3 months in contrast to an acute injury of nerve or nervous system).\nIn case of low back pain (mixed pain) a possible, probable or definite neuropathic pain component can be diagnosed via screening tools at screening/baseline visits, e.g. PAIN DETECT, LANSS, DN-4).\nA 12 week study is designed to compare 5-Methyl-1H-pyrazole-3-carboxylic acid (4-hydroxy-phenyl)-amide (Compound 1) to placebo and to a standard (pregabalin).\nThere are 2-3 dosing arms for Compound 1 (including 1000 and 2000 mg/day)."}},
  "data": [
    {"smiles": "Cc1cc(C(=O)Nc2ccc(O)cc2)n[nH]1", "note": "[Compound 1, 5-Methyl-1H-pyrazole-3-carboxylic acid (4-hydroxy-phenyl)-amide]", "values": [
      {"measurement": "nociceptive behaviors in Phase II of the rat formalin test", "setting": "rat formalin (1%) model", "result": "inhibited nociceptive behaviors"},
      {"measurement": "carrageenan-induced paw-edema (paw volume)", "setting": "[1]; 300 mg/kg and 600 mg/kg, orally, single dose 1 h before carrageenan, FIG. 2A", "result": "dose-relatedly inhibited carrageenan-induced paw-edema"},
      {"measurement": "AUC of paw volume data, 300 mg/kg dose compared to 600 mg/kg dose", "setting": "[1]; FIG. 2B", "result": "statistically significant difference"},
      {"measurement": "duration of the effect of a single oral dose", "setting": "[1]; single oral dose, paw-edema inhibition", "result": "> 8", "unit": "h"},
      {"measurement": "Pain intensity difference from baseline (PID) score compared with 1000 mg acetaminophen", "setting": "[2]", "result": "significantly greater and longer lasting PID score"},
      {"measurement": "half-life", "setting": "[3]", "result": "~10", "unit": "h"},
      {"measurement": "mechanical hypersensitivity (50% threshold force for paw withdrawal)", "setting": "[4]", "result": "mechanical hypersensitivity is reduced"},
      {"measurement": "pain intensity and signs and symptoms of neuropathy/hyperexcitability vs. placebo and standard (pregabalin)", "setting": "neuropathic pain", "result": "shows improvement vs. placebo and improvement or comparable effects vs. standard"}
    ]}
  ]
}
